Experimental data taken from US7029916B2, “Apparatus and method for flow electroporation of biological samples” (MAXCYTE, Inc., priority 2001, dated 2006).

Experiments:
hemoglobin [1] = target: T1, hemoglobin (Homo sapiens, UniProt P68871); settings: relative to DPG; cited from earlier work
hemoglobin [2] = target: T1, hemoglobin; settings: pH 7.4, 37° C.; cited from earlier work
resting Lymphocytes = assay: Transfection efficiency analysis, resting lymphocytes; type: cell-based
Description: Primary lymphocytes were suspended in B&K buffer (125 mM KCl, 15 mM NaCl, 1.2 mM MgCl2, 3 mM glucose, 25 mM Hepes, pH 7.4) cell concentration was set from 1×10^7 cells/mL to 6×10^8 cells/mL together with DNA plasmid from 50 μg/mL to 1 mg/mL. Electroporation, 2.3 kV/cm, 400 μs, 4 pulses for small volume experiments (15 μl) or 2.2 kV/cm, 1.6 ms, 1 pulse for large volume experiments (0.5 mL–2 mL) was performed at room temperature. Following electroporation, cells were incubated in B&K buffer for 20 min at 37° C. for small volume experiments, or diluted by 10× volume of culture medium (RPMI-1640+10% fetal bovine serum+1% Pen-strep+2 mM L-glutamine) for large volume experiments. Cells were cultured in culture medium for various periods (up to 72 hours) and the transfection efficiency was analyzed.
Seven transgenes (Ds-Red, eGFP, βGal, hEndostatin, hEPO, hIFNα, hIL-2) were tested in these experiments. […] When pCMV-Ds-Red or pCMV-EGFP was used, the percentage of the fluorescent cells was counted, by FACS or by manual counting under phase contrast and fluorescence microscope, as the transfection efficiency. […] When pCMV-Endostatin was used, the Endostatin concentration in the supernatant was analyzed by ELISA kit from Cytimmune Sciences, Inc. (College Park, Md.). For pCMV-EPO electroporation, the erythropoietin concentration in the supernatant was analyzed by R&D ELISA kit (Minneapolis, Minn.).

T1 sequence (P69905 2-142 partner limits assumed): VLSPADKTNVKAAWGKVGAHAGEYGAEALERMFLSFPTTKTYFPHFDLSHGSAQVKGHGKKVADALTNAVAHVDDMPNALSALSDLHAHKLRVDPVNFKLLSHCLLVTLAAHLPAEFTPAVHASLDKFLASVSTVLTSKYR
T1 sequence (P68871 2-147 limits assumed): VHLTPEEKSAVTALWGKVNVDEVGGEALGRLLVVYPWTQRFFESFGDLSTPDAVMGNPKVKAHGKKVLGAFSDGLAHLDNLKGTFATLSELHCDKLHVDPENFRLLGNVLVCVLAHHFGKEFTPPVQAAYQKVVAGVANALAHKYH

For `O=P(O)(O)O[C@H]1[C@H](OP(=O)(O)O)[C@@H](OP(=O)(O)O)[C@H](OP(=O)(O)O)[C@@H](OP(=O)(O)O)[C@H]1OP(=O)(O)O` [IHP, inositol hexaphosphate], the “affinity to hemoglobin, higher than DPG” value (hemoglobin [1]) is listed as 1000 fold and the P50 of hemoglobin (hemoglobin [2]) is listed as ≤ 96.4 mm Hg.

For βGal, the “Efficiency (% of + cells)” value (resting Lymphocytes) was 15% and the Viability (resting Lymphocytes) was 40%.
